Data taken from patent US9884818B2, “Sulphamoylpyrrolamide derivatives and the use thereof as medicaments for the treatment of hepatitis B” (Janssen Sciences Ireland UC, priority 2013, dated 2018).
pEC50: −log10 of the molar value.

Legend:
HBV [1] = assay: Anti-HBV activity, HepG2.2.15 stable transfected cell line, HBV DNA from secreted virions by realtime PCR; assay type: cell-based; conditions: HepG2.2.15 cells, 6 days of treatment, HBV DNA from secreted virions, read-out: HepG2 2.15 EC50
[2] = Cytotoxicity in HepG2 cells, Resazurin viability assay; conditions: human, HepG2 cells, HepG2 4 days CC50 (μM), incubated for 4 days, Resazurin assay
HBV [3] = assay: Anti-HBV activity, HepG2.117 inducibly HBV producing cell line (Tet-off), intracellular HBV DNA by realtime PCR; assay type: cell-based; conditions: Hepatitis B virus, HepG2.117, 72 h, HepG2.117 cells, 3 days of treatment, intracellular HBV DNA; read-out: HepG2 117 EC50
[4] = Hepatitis B virus, HepG2.2.15, 144 h

| Structure (SMILES) | pEC50 (HBV [1]; [4]) | CC50 at 4 days [2] [µM] | pEC50 (HBV [3]) | pEC50 (HBV [1]) |
| --- | --- | --- | --- | --- |
| C[C@H](NS(=O)(=O)c1cc(C(=O)Nc2ccc(F)c(Cl)c2)n(C)c1)C(F)(F)F [Compound 105, N-(3-Chloro-4-fluorophenyl)-1-methyl-4-{[(1S)-2,2,2-trifluoro-1-methylethyl]sulfamoyl}-1H-pyrrole-2-carboxamide] | 7.52 | > 25 | 7.70 |  |
| Cc1c(S(=O)(=O)N[C@@H](C)C(F)(F)F)cn(C)c1C(=O)Nc1ccc(F)c(C#N)c1 [Compound 151, N-(3-Cyano-4-fluorophenyl)-1,3-dimethyl-4-{[(1S)-2,2,2-trifluoro-1-methylethyl]sulfamoyl}-1H-pyrrole-2-carboxamide] | 7.10 | > 25 | 7.15 |  |
| Cn1cc(S(=O)(=O)NC2(C)COC2)c(F)c1C(=O)Nc1cc(F)c(F)c(Cl)c1 [Compound 111, N-(3-Chloro-4,5-difluorophenyl)-3-fluoro-1-methyl-4-[(3-methyloxetan-3-yl)sulfamoyl]-1H-pyrrole-2-carboxamide] | 8.15 | > 25 | 8.15 |  |
| CC(C)NS(=O)(=O)c1cn(C)c(C(=O)Nc2ccc(F)c(Br)c2)c1F [Compound 230, N-(3-Bromo-4-fluorophenyl)-3-fluoro-1-methyl-4-[(1-methylethyl)sulfamoyl]-1H-pyrrole-2-carboxamide] | 8.10 | > 25 | 7.52 |  |
| Cc1c(S(=O)(=O)NC2(C)COC2)cc(C(=O)Nc2cc(F)c(F)c(Cl)c2)n1C [Compound 136, N-(3-Chloro-4,5-difluorophenyl)-1,5-dimethyl-4-[(3-methyloxetan-3-yl)sulfamoyl]-1H-pyrrole-2-carboxamide] | 7.22 | > 25 | 7.22 |  |
| CC(C)n1cc(S(=O)(=O)N[C@H](C)C(F)(F)F)c(Cl)c1C(=O)Nc1ccc(F)c(C#N)c1 [Compound 291, 3-chloro-N-(3-cyano-4-fluoro-phenyl)-1-isopropyl-4-[[(1R)-2,2,2-trifluoro-1-methyl-ethyl]sulfamoyl]pyrrole-2-carboxamide] | 6.38 | > 25 | 6.41 |  |
| Cn1cc(S(=O)(=O)NC(C)(C)C(F)(F)F)cc1C(=O)Nc1ccc(F)c(C#N)c1 [Compound 237, N-(3-Cyano-4-fluorophenyl)-1-methyl-4-[(2,2,2-trifluoro-1,1-di-methylethyl)sulfamoyl]-1H-pyrrole-2-carboxamide] | 7.10 | > 25 | 7.00 |  |
| Cc1cc(NC(=O)c2cc(S(=O)(=O)NC3(CO)CC3)cn2C)ccc1F [Compound 12, N-(4-fluoro-3-methyl-phenyl)-4-[[1-(hydroxymethyl)cyclopropyl]sulfamoyl]-1-methyl-pyrrole-2-carboxamide] | 6.92 | > 25 | 7.22 |  |
| Cn1cc(S(=O)(=O)NC2(C(F)(F)F)CCCC2)c(F)c1C(=O)Nc1ccc(F)c(C#N)c1 [Compound 281, N-(3-cyano-4-fluoro-phenyl)-3-fluoro-1-methyl-4-[[1-(trifluoro-methyl)cyclopentyl]sulfamoyl]pyrrole-2-carboxamide] | > 8.40 | > 25 | 8.15 |  |
| Cc1c(S(=O)(=O)N[C@H](C)C(F)(F)F)cc(C(=O)Nc2cc(F)c(F)c(Cl)c2)n1C [Compound 137, N-(3-Chloro-4,5-difluorophenyl)-1,5-dimethyl-4-{[(1R)-2,2,2-trifluoro-1-methylethyl]sulfamoyl}-1H-pyrrole-2-carboxamide] | 7.52 | 16.5 | 7.40 |  |
| Cc1cc(NC(=O)c2cc(S(=O)(=O)N[C@H](C)CO)cn2C)cc(F)c1F [Compound 36, N-(3,4-difluoro-5-methyl-phenyl)-4-[[(1R)-2-hydroxy-1-methyl-ethyl]-sulfamoyl]-1-methyl-pyrrole-2-carboxamide] | 7.10 | > 25 | 7.40 |  |
| Cn1cc(S(=O)(=O)NC(C)(C)C(F)(F)F)cc1C(=O)Nc1ccc(F)c(Cl)c1F [Compound 254, N-(3-chloro-2,4-difluoro-phenyl)-1-methyl-4-[(2,2,2-trifluoro-1,1-dimethyl-ethyl)sulfamoyl]-1H-pyrrole-2-carboxamide] | 7.30 | > 25 | 7.30 |  |
| Cc1c(F)ccc(NC(=O)c2c(Cl)c(S(=O)(=O)N[C@H](C)C(F)(F)F)cn2C)c1C#N [Compound 272, 3-chloro-N-(2-cyano-4-fluoro-3-methyl-phenyl)-1-methyl-4-[[(1R)-2,2,2-trifluoro-1-methyl-ethyl]sulfamoyl]pyrrole-2-carboxamide] | 6.52 | > 25 | 6.12 |  |
| C[C@@H](NS(=O)(=O)c1c(F)c(C(=O)Nc2ccc(F)c(C#N)c2)n(C)c1C#N)C(F)(F)F [Compound 310, 5-cyano-N-(3-cyano-4-fluoro-phenyl)-3-fluoro-1-methyl-4-[[(1R)-2,2,2-trifluoro-1-methyl-ethyl]sulfamoyl]pyrrole-2-carboxamide] | 7.15 | > 25 | 6.80 |  |
| Cn1cc(S(=O)(=O)NC2(C(F)(F)F)CCOC2)cc1C(=O)Nc1ccc(F)c(C#N)c1 (single isomer, unassigned) [Compound 228a, N-(3-Cyano-4-fluorophenyl)-1-methyl-4-{[3-(trifluoromethyl)tetrahydrofuran-3-yl]sulfamoyl}-1H-pyrrole-2-carboxamide] | 7.52 | > 25 | 7.52 |  |
| Cc1c(S(=O)(=O)N[C@H](C)C(F)(F)F)cn(C)c1C(=O)Nc1ccc(F)c(C#N)c1 [Compound 150, N-(3-Cyano-4-fluorophenyl)-1,3-dimethyl-4-{[(1R)-2,2,2-trifluoro-1-methylethyl]sulfamoyl}-1H-pyrrole-2-carboxamide] | 7.05 | > 25 | 7.22 |  |
| CC(C)NS(=O)(=O)c1cc(C(=O)Nc2ccc(F)c(C#N)c2)n(C)c1 [Compound 175, N-(3-Cyano-4-fluorophenyl)-1-methyl-4-[(1-methylethyl)sulfamoyl]-1H-pyrrole-2-carboxamide] | 7.15 | > 25 | 6.89 |  |
| CC(CC(F)(F)F)NS(=O)(=O)c1cc(C(=O)Nc2cc(F)c(F)c(Cl)c2)n(C)c1 (single isomer, unassigned) [Compound 169a, N-(3-Chloro-4,5-difluorophenyl)-1-methyl-4-[(3,3,3-trifluoro-1-methylpropyl)sulfamoyl]-1H-pyrrole-2-carboxamide] |  | 16.1 | 7.30 | 6.85 |
| CC(C)NS(=O)(=O)c1cc(C(=O)Nc2ccc(F)c(C(F)(F)F)c2)n(C)c1 [Compound 44, N-[4-fluoro-3-(trifluoromethyl)phenyl]-4-(isopropylsulfamoyl)-1-methyl-pyrrole-2-carboxamide] | 6.43 | > 25 | 6.59 |  |
| C[C@H](NS(=O)(=O)c1cc(C(=O)Nc2cc(F)c(F)c(Br)c2)n(C)c1)C(F)(F)F [Compound 100, N-(3-Bromo-4,5-difluorophenyl)-1-methyl-4-{[(1S)-2,2,2-trifluoro-1-methylethyl]sulfamoyl}-1H-pyrrole-2-carboxamide] | 7.22 | 12.2 | 7.30 |  |
| C[C@H](NS(=O)(=O)c1cc(C(=O)Nc2ccc(F)c(C#N)c2F)n(C)c1)C(F)(F)F [Compound 196, N-(3-Cyano-2,4-difluorophenyl)-1-methyl-4-{[(1S)-2,2,2-trifluoro-1-methylethyl]sulfamoyl}-1H-pyrrole-2-carboxamide] | 7.00 | > 25 | 7.10 |  |
| C[C@@H](NS(=O)(=O)c1cn(C)c(C(=O)Nc2ccc(F)c(C#N)c2)c1F)C(F)(F)F [Compound 170, N-(3-Cyano-4-fluorophenyl)-3-fluoro-1-methyl-4-{[(1R)-2,2,2-trifluoro-1-methylethyl]sulfamoyl}-1H-pyrrole-2-carboxamide] | > 8.30 | > 100 | 8.30 |  |
| CC(C)NS(=O)(=O)c1cc(C(=O)Nc2ccc(F)c(F)c2)n(C)c1 [Compound 22, N-(3,4-difluorophenyl)-4-(isopropylsulfamoyl)-1-methyl-pyrrole-2-carboxamide] | 7.10 | > 25 | 7.15 |  |
| C[C@@H](NS(=O)(=O)c1cn(C)c(C(=O)Nc2ccc(F)c(C#N)c2F)c1Cl)C(F)(F)F [Compound 276, 3-chloro-N-(3-cyano-2,4-difluoro-phenyl)-1-methyl-4-[[(1R)-2,2,2-trifluoro-1-methyl-ethyl]sulfamoyl]pyrrole-2-carboxamide] | 8.00 | > 25 | 8.00 |  |
| Cc1cc(NC(=O)c2cc(S(=O)(=O)N[C@H](C)C(F)(F)F)cn2C)ccc1F [Compound 9, N-(4-fluoro-3-methyl-phenyl)-1-methyl-4-[[(1R)-2,2,2-trifluoro-1-methyl-ethyl]sulfamoyl]pyrrole-2-carboxamide] | 8.00 | > 25 | 7.52 |  |
| Cn1cc(S(=O)(=O)NC2(C(F)(F)F)CCC2)cc1C(=O)Nc1ccc(F)c(Cl)c1F [Compound 263, N-(3-chloro-2,4-difluoro-phenyl)-1-methyl-4-{[1-(trifluoromethyl)-cyclobutyl]sulfamoyl}-1H-pyrrole-2-carboxamide] | 8.30 | > 25 | 8.10 |  |
| Cc1cc(NC(=O)c2cc(S(=O)(=O)NC(C)C)cn2C)ccc1F [Compound 2, N-(4-fluoro-3-methyl-phenyl)-4-(isopropylsulfamoyl)-1-methyl-pyrrole-2-carboxamide] | 7.52 | > 25 | 7.22 |  |
